Experimental data as given in PubChem BioAssay AID248 (DTP/NCI, 2004).
Where “and” joins values, the source holds several entries; their conditions need not be identical. Equal values may be shown once. Inconclusive results and toxic doses are left out.

Tested on: L1210 leukemia ip in BDF1 mice, survival T/C
Assay: NCI In Vivo Anticancer Drug Screen. Data for tumor model L1210 Leukemia (intraperitoneal) in B6D2F1 (BDF1) mice
Conditions: higher = longer survival
Method in brief: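 Tumor was transplanted into mice, which were then dosed with test compound or vehicle alone. Survival was recorded for each group, and the treated figure was expressed relative to the control figure.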

N[C@H](C(=O)O)[C@H]1ON=C(Cl)[C@@H]1O
T/C (endpoint: mean survival time, dose: 0.78 mg/kg/injection, schedule: Q01DX009 (ip), vehicle: saline): 108 % of control | T/C (endpoint: mean survival time, dose: 5.5 mg/kg/injection, schedule: Q01DX009 (ip), vehicle: Klucel (hydroxypropylcellulose) (HPC)): 108 % of control | T/C (endpoint: mean survival time, dose: 25.0 mg/kg/injection, schedule: Q01DX009 (ip), vehicle: Klucel (hydroxypropylcellulose) (HPC)): 118 % of control | T/C (endpoint: mean survival time, dose: 50.0 mg/kg/injection, schedule: Q01DX009 (ip), vehicle: Klucel (hydroxypropylcellulose) (HPC)): 150 % of control | T/C (endpoint: mean survival time, dose: 66.0 mg/kg/injection, schedule: Q01DX009 (ip), vehicle: Klucel (hydroxypropylcellulose) (HPC)): 151 % of control | T/C (endpoint: mean survival time, dose: 100.0 mg/kg/injection, schedule: Q01DX009 (ip), vehicle: Klucel (hydroxypropylcellulose) (HPC)): 154 % of control and 158 % of control | T/C (endpoint: mean survival time, dose: 150.0 mg/kg/injection, schedule: Q01DX009 (ip), vehicle: Klucel (hydroxypropylcellulose) (HPC)): 104 % of control | T/C (endpoint: median survival time, dose: 4.0 mg/kg/injection, schedule: Q03HX008 (ip), vehicle: saline): 123 % of control | T/C (endpoint: median survival time, dose: 4.0 mg/kg/injection, schedule: Q03HX024 (ip), vehicle: saline): 154 % of control | T/C (endpoint: median survival time, dose: 6.25 mg/kg/injection, schedule: Q03HX016 (ip), vehicle: saline): 154 % of control | T/C (endpoint: median survival time, dose: 6.25 mg/kg/injection, schedule: Q03HX024 (ip), vehicle: saline): 189 % of control | T/C (endpoint: median survival time, dose: 8.0 mg/kg/injection, schedule: Q01DX009 (sc), vehicle: saline): 118 % of control | T/C (endpoint: median survival time, dose: 8.0 mg/kg/injection, schedule: Q03HX016 (ip), vehicle: saline): 153 % of control | T/C (endpoint: median survival time, dose: 12.5 mg/kg/injection, schedule: Q03HX016 (ip), vehicle: saline): 152 % of control | T/C (endpoint: median survival time, dose: 12.5 mg/kg/injection, schedule: Q03HX024 (ip), vehicle: saline): 170 % of control | T/C (endpoint: median survival time, dose: 16.0 mg/kg/injection, schedule: Q03HX016 (ip), vehicle: saline): 150 % of control | T/C (endpoint: median survival time, dose: 25.0 mg/kg/injection, schedule: Q01DX001 (ip), vehicle: saline): 113 % of control | T/C (endpoint: median survival time, dose: 25.0 mg/kg/injection, schedule: Q01DX009 (ip), vehicle: saline): 171 % of control | T/C (endpoint: median survival time, dose: 25.0 mg/kg/injection, schedule: Q03HX016 (ip), vehicle: saline): 160 % of control | T/C (endpoint: median survival time, dose: 25.0 mg/kg/injection, schedule: Q08DX002 (ip), vehicle: saline): 104 % of control | T/C (endpoint: median survival time, dose: 32.0 mg/kg/injection, schedule: Q01DX001 (ip), vehicle: saline): 105 % of control | T/C (endpoint: median survival time, dose: 32.0 mg/kg/injection, schedule: Q01DX001 (sc), vehicle: saline): 105 % of control | T/C (endpoint: median survival time, dose: 32.0 mg/kg/injection, schedule: Q03HX016 (ip), vehicle: saline): 150 % of control | T/C (endpoint: median survival time, dose: 32.0 mg/kg/injection, schedule: Q03HX024 (ip), vehicle: saline): 153 % of control | T/C (endpoint: median survival time, dose: 32.0 mg/kg/injection, schedule: Q04DX003 (ip), vehicle: saline): 122 % of control | T/C (endpoint: median survival time, dose: 32.0 mg/kg/injection, schedule: Q08DX002 (ip), vehicle: saline): 111 % of control | T/C (endpoint: median survival time, dose: 50.0 mg/kg/injection, schedule: Q01DX001 (ip), vehicle: saline): 113 % of control | T/C (endpoint: median survival time, dose: 50.0 mg/kg/injection, schedule: Q03HX016 (ip), vehicle: saline): 158 % of control | T/C (endpoint: median survival time, dose: 50.0 mg/kg/injection, schedule: Q08DX002 (ip), vehicle: saline): 108 % of control | T/C (endpoint: median survival time, dose: 64.0 mg/kg/injection, schedule: Q01DX001 (ip), vehicle: saline): 100 % of control | T/C (endpoint: median survival time, dose: 64.0 mg/kg/injection, schedule: Q01DX001 (sc), vehicle: saline): 106 % of control | T/C (endpoint: median survival time, dose: 64.0 mg/kg/injection, schedule: Q01DX009 (oral), vehicle: saline): 115 % of control | T/C (endpoint: median survival time, dose: 64.0 mg/kg/injection, schedule: Q01DX009 (sc), vehicle: saline): 151 % of control | T/C (endpoint: median survival time, dose: 64.0 mg/kg/injection, schedule: Q03HX024 (ip), vehicle: saline): 153 % of control | T/C (endpoint: median survival time, dose: 64.0 mg/kg/injection, schedule: Q04DX003 (ip), vehicle: saline): 122 % of control | T/C (endpoint: median survival time, dose: 64.0 mg/kg/injection, schedule: Q08DX002 (ip), vehicle: saline): 113 % of control | T/C (endpoint: median survival time, dose: 100.0 mg/kg/injection, schedule: Q01DX001 (ip), vehicle: saline): 104 % of control | T/C (endpoint: median survival time, dose: 100.0 mg/kg/injection, schedule: Q01DX009 (ip), vehicle: saline): 169 % of control | T/C (endpoint: median survival time, dose: 100.0 mg/kg/injection, schedule: Q03HX016 (ip), vehicle: saline): 152 % of control | T/C (endpoint: median survival time, dose: 100.0 mg/kg/injection, schedule: Q03HX024 (ip), vehicle: saline): 202 % of control | T/C (endpoint: median survival time, dose: 100.0 mg/kg/injection, schedule: Q04DX003 (ip), vehicle: saline): 122 % of control | T/C (endpoint: median survival time, dose: 100.0 mg/kg/injection, schedule: Q08DX002 (ip), vehicle: saline): 114 % of control | T/C (endpoint: median survival time, dose: 128.0 mg/kg/injection, schedule: Q01DX001 (ip), vehicle: saline): 108 % of control | T/C (endpoint: median survival time, dose: 128.0 mg/kg/injection, schedule: Q01DX001 (sc), vehicle: saline): 104 % of control | T/C (endpoint: median survival time, dose: 128.0 mg/kg/injection, schedule: Q01DX009 (ip), vehicle: saline): 151 % of control | T/C (endpoint: median survival time, dose: 128.0 mg/kg/injection, schedule: Q01DX009 (sc), vehicle: saline): 163 % of control | T/C (endpoint: median survival time, dose: 128.0 mg/kg/injection, schedule: Q03HX024 (ip), vehicle: saline): 152 % of control | T/C (endpoint: median survival time, dose: 128.0 mg/kg/injection, schedule: Q04DX003 (ip), vehicle: saline): 108 % of control | T/C (endpoint: median survival time, dose: 128.0 mg/kg/injection, schedule: Q08DX002 (ip), vehicle: saline): 102 % of control | T/C (endpoint: median survival time, dose: 200.0 mg/kg/injection, schedule: Q01DX001 (ip), vehicle: saline): 108 % of control | T/C (endpoint: median survival time, dose: 200.0 mg/kg/injection, schedule: Q01DX009 (ip), vehicle: saline): 104 % of control | T/C (endpoint: median survival time, dose: 200.0 mg/kg/injection, schedule: Q08DX002 (ip), vehicle: saline): 104 % of control | T/C (endpoint: median survival time, dose: 256.0 mg/kg/injection, schedule: Q01DX001 (ip), vehicle: saline): 104 % of control | T/C (endpoint: median survival time, dose: 256.0 mg/kg/injection, schedule: Q01DX001 (oral), vehicle: saline): 108 % of control and 109 % of control | T/C (endpoint: median survival time, dose: 256.0 mg/kg/injection, schedule: Q01DX001 (sc), vehicle: saline): 104 % of control | T/C (endpoint: median survival time, dose: 256.0 mg/kg/injection, schedule: Q01DX009 (ip), vehicle: saline): 153 % of control | T/C (endpoint: median survival time, dose: 256.0 mg/kg/injection, schedule: Q01DX009 (oral), vehicle: saline): 115 % of control and 90 % of control | T/C (endpoint: median survival time, dose: 256.0 mg/kg/injection, schedule: Q08DX002 (ip), vehicle: saline): 99 % of control | T/C (endpoint: median survival time, dose: 400.0 mg/kg/injection, schedule: Q01DX001 (ip), vehicle: saline): 117 % of control | T/C (endpoint: median survival time, dose: 400.0 mg/kg/injection, schedule: Q08DX002 (ip), vehicle: saline): 122 % of control | T/C (endpoint: median survival time, dose: 512.0 mg/kg/injection, schedule: Q01DX001 (ip), vehicle: saline): 105 % of control | T/C (endpoint: median survival time, dose: 512.0 mg/kg/injection, schedule: Q01DX001 (oral), vehicle: saline): 115 % of control and 118 % of control | T/C (endpoint: median survival time, dose: 512.0 mg/kg/injection, schedule: Q01DX001 (sc), vehicle: saline): 107 % of control | T/C (endpoint: median survival time, dose: 512.0 mg/kg/injection, schedule: Q01DX009 (oral), vehicle: saline): 87 % of control | T/C (endpoint: median survival time, dose: 512.0 mg/kg/injection, schedule: Q08DX002 (ip), vehicle: saline): 102 % of control | T/C (endpoint: median survival time, dose: 1024.0 mg/kg/injection, schedule: Q01DX001 (ip), vehicle: saline): 114 % of control | T/C (endpoint: median survival time, dose: 1024.0 mg/kg/injection, schedule: Q01DX001 (oral), vehicle: saline): 114 % of control | T/C (endpoint: median survival time, dose: 1024.0 mg/kg/injection, schedule: Q01DX001 (sc), vehicle: saline): 109 % of control | T/C (endpoint: median survival time, dose: 1024.0 mg/kg/injection, schedule: Q08DX002 (ip), vehicle: saline): 118 % of control

CCC(C)NC(C)=O (centres undefined)
T/C (endpoint: mean survival time, dose: 100.0 mg/kg/injection, schedule: Q04DX003 (ip), vehicle: saline): 115 % of control | T/C (endpoint: mean survival time, dose: 200.0 mg/kg/injection, schedule: Q04DX003 (ip), vehicle: saline): 97 % of control | T/C (endpoint: mean survival time, dose: 400.0 mg/kg/injection, schedule: Q04DX003 (ip), vehicle: saline): 110 % of control

CCCCN1c2ccccc2NP1(=S)c1ccccc1 (centres undefined)
T/C (endpoint: mean survival time, dose: 100.0 mg/kg/injection, schedule: Q04DX002 (ip), vehicle: DMSO): 93 % of control | T/C (endpoint: mean survival time, dose: 200.0 mg/kg/injection, schedule: Q04DX002 (ip), vehicle: DMSO): 101 % of control
